Publication PMC10649063, “Optimization of a Novel Tyrosinase Inhibitory Peptide from Atrina pectinata Mantle and Its Molecular Inhibitory Mechanism” (Foods, 2023)
Entries after “also recorded” stand apart in the source; their conditions may differ. Like-named read-outs stand apart in the source and are kept apart here. One block for each molecule: values may come before it. Peptide text beside a SMILES is read from it.

How the values were obtained:
Mushroom tyrosinase = target: T1, Mushroom tyrosinase (Agaricus bisporus, UniProt C7FF04); assay: Tyrosinase inhibitory activity (L-tyrosine substrate, absorbance at 475 nm); format: biochemical
T1 construct: purchased Beijing Solarbio Biotechnology Co., Ltd
Method: Tyrosinase inhibitory activity was determined in conformity with. With reference to the reagent addition in Table 1, we added phosphate buffer solution (PBS, pH 6.8, 0.1 mol/L), sample solutions and L-tyrosine solution (L-Tyr, 0.5 mg/mL, pH 6.8 in PBS) to each well in a 96-well plate. These were mixed well and incubated at 37 °C for 10 min. Then, 20 μL of mushroom tyrosinase solution (500 U/mL) was added, mixed and reacted at 37 °C for 15 min, and monitored at 475 nm. The tyrosinase inhibition rate (Y) was calculated as follows:(1) Y=(1−A4−A3/A2−A1)×100% where A4 is the absorbance of the reaction well of the sample, A3 is the absorbance value of the sample background well, A2 is the absorption value of the solvent reaction well and A1 is the absorbance of the solvent background well.

tyrosinase = target: T2, tyrosinase (Agaricus bisporus, UniProt C7FF04); assay: Enzyme inhibition kinetic assay (enzyme concentration vs. rate, Lineweaver–Burk plots); format: biochemical, mushroom; settings: for Ki: Inhibition Constant KI (mM), enzyme–inhibitor complex; for Inhibition Constant KIS: enzyme–inhibitor–substrate complex
T2 construct: purchased Beijing Solarbio Biotechnology Co., Ltd
Source text: The Lineweaver–Burk double-inverse curve was obtained by taking the reciprocal of the substrate concentration (1/[S]) as the horizontal coordinate and the reciprocal of the initial reaction rate (1/V) as the vertical coordinate to determine the type of inhibition and to calculate the Mie constant (KM) and the maximum reaction rate (Vmax).
To elucidate the mechanism of inhibition of tyrosinase by YYP, kinetic studies were used to investigate the kinetic characterization of the inhibitory response (Figure 6).
The Lineweaver–Burk double-inverse plot of the inhibitory effect of YYP on tyrosinase is illustrated in Figure 6. The 1/V were both fitted linearly to the 1/[S] (R^2 and p-values shown in Table 10) and intersected in the second quadrant of the graph. As the amount of YYP increased, the value of KM increased and the value of Vmax decreased.
The mixed-inhibitory type inhibits tyrosinase via two distinct pathways: competitively forming enzyme–inhibitor (EI) complexes and interrupting enzyme–substrate–inhibitor (ESI) complexes in a noncompetitive manner. The inhibition constant KI or KIS is the dissociation constant for the dissociation of the inhibitor (I) from the EI complexs or the enzyme–inhibitor–substrate (EIS) complexs. Both baicalein and cinnamic acid derivatives are reversible mixed-type inhibitors. […] Summarized in Table 10, based on the slope ratio and intercept ratio of the Lineweaver–Burk curve (with and without the presence of samples), the KI and KIS can be obtained.

[1] = target: Mushroom tyrosinase (Agaricus bisporus) (UniProt C7FF04)
[2] = target: Mushroom tyrosinase (Agaricus bisporus) (UniProt C7FF04); assay: enzyme inhibition kinetics (Lineweaver-Burk); tyrosinase with L-tyrosine as substrate; KI and KIS from the slope ratio and intercept ratio of the Lineweaver-Burk lines with and without YYP; YYP 1 mM
[3] = target: Mushroom tyrosinase (Agaricus bisporus) (UniProt C7FF04); assay: enzyme inhibition kinetics (Lineweaver-Burk); tyrosinase with L-tyrosine as substrate; KI and KIS from the slope ratio and intercept ratio of the Lineweaver-Burk lines with and without YYP; YYP 2 mM
[4] = target: Mushroom tyrosinase (Agaricus bisporus) (UniProt C7FF04); assay: enzyme inhibition kinetics (Lineweaver-Burk); tyrosinase with L-tyrosine as substrate; KI and KIS from the slope ratio and intercept ratio of the Lineweaver-Burk lines with and without YYP; YYP 0.5 mM
[5] = synthetic peptides, read-out: Tyrosinase Inhibitory Activity (IC50)

T1 sequence (C7FF04 1-392 limits assumed): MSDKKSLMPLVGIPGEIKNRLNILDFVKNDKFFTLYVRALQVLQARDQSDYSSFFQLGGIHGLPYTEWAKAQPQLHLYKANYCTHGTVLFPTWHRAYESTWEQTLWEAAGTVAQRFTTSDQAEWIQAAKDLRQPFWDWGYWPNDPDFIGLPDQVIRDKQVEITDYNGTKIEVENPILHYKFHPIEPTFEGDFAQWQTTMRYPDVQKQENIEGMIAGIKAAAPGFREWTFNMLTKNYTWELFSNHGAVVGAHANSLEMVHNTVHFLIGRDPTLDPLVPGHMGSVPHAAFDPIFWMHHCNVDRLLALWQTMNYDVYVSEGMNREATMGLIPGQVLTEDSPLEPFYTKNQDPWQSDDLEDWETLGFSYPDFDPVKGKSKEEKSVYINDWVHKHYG

IC50 (Mushroom tyrosinase; [5]): 5870 ± 68 µM
Molecule: CC(C)[C@H](NC(=O)[C@H](CCCNC(=N)N)NC(=O)[C@@H](N)Cc1ccccc1)C(=O)N[C@@H](CCCCN)C(=O)O [FRVK, Phe-Arg-Val-Lys] (H-FRVK-OH; N-terminus and C-terminus assumed)

IC50 (Mushroom tyrosinase; [5]): > 10000 µM
Molecule: O=C(O)[C@H](Cc1ccccc1)NC(=O)[C@H](Cc1c[nH]cn1)NC(=O)[C@H](Cc1c[nH]cn1)NC(=O)[C@@H]1CCCN1 [PHHF, Pro-His-His-Phe] (H-PHHF-OH; N-terminus and C-terminus assumed)

Tyrosinase Inhibitory Activity (IC50, mM); oxidation of L-tyrosine by mushroom tyrosinase read at 475 nm [1]: > 10 mM
Molecule: Pro-Tyr-Leu-Lys (PYLK) (peptide)

KIS (inhibitor from the enzyme-inhibitor-substrate complex) [2]: 11.4 mM
Tyrosinase Inhibitory Activity (IC50, mM); oxidation of L-tyrosine by mushroom tyrosinase read at 475 nm [1]: 1.76 mM
KIS (inhibitor from the enzyme-inhibitor-substrate complex) [3]: 12.1 mM
KIS (inhibitor from the enzyme-inhibitor-substrate complex) [4]: 8.38 mM
Molecule: Tyr-Tyr-Pro (YYP) (peptide)

Further lines, the molecule ahead of its results:

Molecule: CC(C)C[C@H](NC(=O)[C@H](Cc1ccc(O)cc1)NC(=O)[C@@H]1CCCN1)C(=O)N[C@@H](CCCCN)C(=O)O [PYLK, Pro-Tyr-Leu-Lys] (H-PYLK-OH; N-terminus and C-terminus assumed)
IC50 (Mushroom tyrosinase; [5]): > 10000 µM

Molecule: N[C@@H](Cc1ccc(O)cc1)C(=O)N[C@@H](Cc1ccc(O)cc1)C(=O)N1CCC[C@H]1C(=O)O [YYP, Tyr-Tyr-Pro] (H-Tyr-Tyr-Pro-OH; N-terminus and C-terminus assumed)
IC50 (Mushroom tyrosinase): 1760 ± 25 µM
Ki (tyrosinase; YYP 0.5 mM): 0.245 mM
Ki (tyrosinase; YYP 1 mM): 0.283 mM
Ki (tyrosinase; YYP 2 mM): 0.428 mM
Type of tyrosinase inhibition (tyrosinase; Lineweaver–Burk analysis): mixture of noncompetitive and competitive types; also recorded: mixed type of inhibition; also recorded: hybrid
Maximum Reaction Speed Vmax (A475/min) (tyrosinase; YYP 0.5 mM): 0.0212 A475/min
Inhibition Constant KIS (tyrosinase; YYP 0.5 mM): 8.3833 mM
Maximum Reaction Speed Vmax (A475/min) (tyrosinase; YYP 1 mM): 0.0206 A475/min
Inhibition Constant KIS (tyrosinase; YYP 1 mM): 11.4139 mM
Maximum Reaction Speed Vmax (A475/min) (tyrosinase; YYP 2 mM): 0.0192 A475/min
Inhibition Constant KIS (tyrosinase; YYP 2 mM): 12.1276 mM
Reversibility of tyrosinase inhibition (tyrosinase; enzyme concentration vs. initial rate at different YYP concentrations): reversible

Molecule: PHHF [Pro-His-His-Phe (PHHF)]
Tyrosinase Inhibitory Activity (IC50, mM); oxidation of L-tyrosine by mushroom tyrosinase read at 475 nm [1]: > 10 mM

Molecule: FRVK [Phe-Arg-Val-Lys (FRVK)]
Tyrosinase Inhibitory Activity (IC50, mM); oxidation of L-tyrosine by mushroom tyrosinase read at 475 nm [1]: 5.87 mM
